Measured values published in patent US9605013B2, “Derivatives of hemin with antibacterial and antiviral activity” (OBSCHESTVO S OGRANICHENNOI OTVETSTVENNOSTIYU …, priority 2011, dated 2017).

Test system: Herpes Simplex Virus type 1 strain EC
Assay: Antiviral activity, virus cytopathogenic action in Vero cells
Type: cell-based
Design: key: 0: CPA (cytopathogenic action) is not detected; 1: up to 25% virus-infected monolayer; from 25% to 50%; 3: from 50% to 75%; 4: from 75% to 100%
Settings: 48 hours
[1] = HSV-1, virus dose 1, concentration 0.1 μM
[2] = HSV-1, virus dose 1, concentration 1 μM
[3] = HSV-1, virus dose 1, concentration 10 μM
[4] = HSV-1, virus dose 10, concentration 0.1 μM
[5] = HSV-1, virus dose 10, concentration 1 μM
[6] = HSV-1, virus dose 10, concentration 10 μM
[7] = HSV-1, virus dose 100, concentration 0.1 μM
[8] = HSV-1, virus dose 100, concentration 1 μM
[9] = HSV-1, virus dose 100, concentration 10 μM

Molecule	manifestation of the virus CPA [1]	manifestation of the virus CPA [2]	manifestation of the virus CPA [3]	manifestation of the virus CPA [4]	manifestation of the virus CPA [5]	manifestation of the virus CPA [6]	manifestation of the virus CPA [7]	manifestation of the virus CPA [8]	manifestation of the virus CPA [9]
6,7-bis-(Amide N^α-Glycyl)-Protohemin (IX) [IV]	1 (up to 25% virus-infected monolayer)	1 (up to 25% virus-infected monolayer)	0^1	2 (from 25% to 50%)	2 (from 25% to 50%)	0^1	3 (from 50% to 75%)	3 (from 50% to 75%)	2^1 (from 25% to 50%)
C=CC1=C(C)c2cc3[n-]c(cc4[n-]c(cc5nc(cc1n2)C(C)=C5C=C)c(C)c4CCC(=O)N[C@@H](CO)C(=O)O)c(CCC(=O)N[C@@H](CO)C(=O)O)c3C.[Cl-].[Fe+3] [VI, 6,7-bis-(N^α-Seryl]-Protohemin (IX)]	0^1	0^1	0^1	2 (from 25% to 50%)	2 (from 25% to 50%)	2^ (from 25% to 50%)	3 (from 50% to 75%)	3.3 scores	3 (from 50% to 75%)
